This note sets out measurements from ChEMBL document CHEMBL5625216, “Design, synthesis, and biological evaluation of 3, 5-disubsituted-1H-pyrazolo[3,4-b]pyridines as multiacting inhibitors against microtubule and kinases” (Eur J Med Chem, 2023).

Data set [1] can be described thus: in vivo. Conditions: ICR, mouse, iv, 5 mg/kg.
Data set [2] is described as follows: in vivo. Conditions: ICR, mouse, po, 15 mg/kg.
A short description of data set [3]: in vivo. Conditions: ICR, mouse, iv, 5 mg/kg. The source holds these as a separate data set.
Data set [4] in a line: in vivo. Conditions: ICR, mouse, po, 15 mg/kg. This is another data set of the same source.
A short description of data set [5]: in vivo. Conditions: ICR, mouse, iv, 5 mg/kg. This is another data set of the same source.
Data set [6] in a line: in vivo. The conditions noted are these: ICR, mouse, po, 15 mg/kg. The source holds these as a separate data set.
Data set [7] can be described thus: in vivo. The conditions noted are these: ICR, mouse, iv, 5 mg/kg. This is another data set of the same source.
Data set [8] in a line: in vivo. The conditions noted are these: ICR, mouse, po, 15 mg/kg. The source holds these as a separate data set.
Data set [9] is described as follows: in vivo. Conditions: ICR, mouse, iv, 5 mg/kg. The source holds these as a separate data set.
Data set [10] can be described thus: in vivo. Conditions: ICR, mouse, iv, 5 mg/kg. This is another data set of the same source.
Data set [11] can be described thus: in vivo. Conditions: ICR, mouse, po, 15 mg/kg. The source holds these as a separate data set.

For orientation: AUC(0-t) means exposure summed from dosing to a finite time, without extrapolation to infinity. A low value points to low exposure. For orientation: half-life means the time needed for the level to fall by half in the phase considered. A low value points to fast loss. For orientation: Tmax means the time at which the peak concentration occurs. A word on the Cmax: it is the maximum level reached in the sampled fluid or tissue. A word on the Vd: it is a proportionality between amount in the body and measured concentration, not a real space. A lower Vd goes with little distribution into tissue. As usually defined, the clearance is the volume of plasma or blood freed of the substance per unit of time. What is called bioavailability is dose-corrected exposure relative to a reference, in per cent. Low values mean poor availability, high ones good availability.

The structures appear in SMILES notation.

With `COc1cc(-c2n[nH]c3ncc(-c4ccc(C)c(NCCO)c4)cc23)cc(OC)c1OC`, the AUC(0-t) at 24 h in “in vivo [1]” was 1150 ng·h/mL; in “in vivo [2]” it was 110 ng·h/mL. Also, the half-life at 24 h in “in vivo [3]” was 78 min; in the data set “in vivo [4]”, 72 min. In addition, the results for the time of peak concentration (Tmax) at 24 h in “in vivo [5]” and in “in vivo [6]” were 6 min and 18 min, respectively. The Cmax at 24 h in the data set “in vivo [7]” stood at 3850 ng/mL; in “in vivo [8]” it was 115 ng/mL. For the same compound, the distribution volume (Vd) at 24 h in “in vivo [9]” turned out to be 1.3 L/kg. The clearance at 24 h in the data set “in vivo [10]” was 73.3 mL/min/kg. In the data set “in vivo [11]”, this compound returned a bioavailability at 24 h of 3.2%.
